# Key:
# yeast α-glucosidase = yeast α-glucosidase (Saccharomyces cerevisiae, UniProt P53341); assay: In vitro α-glucosidase inhibition assay; type: biochemical; conditions: for Fold decrease of anti-α-glucosidase activity relative to compound 10e: compared with 4-ethylphenyl derivative 10e; for Fold decrease of inhibitory activity relative to compound 10g: compared with 2,6-dimethyl derivative 10g; for Fold increase of inhibitory activity relative to compound 10m: compared with 4-nitro derivative 10m
# Sequence of yeast α-glucosidase (P53341 whole entry): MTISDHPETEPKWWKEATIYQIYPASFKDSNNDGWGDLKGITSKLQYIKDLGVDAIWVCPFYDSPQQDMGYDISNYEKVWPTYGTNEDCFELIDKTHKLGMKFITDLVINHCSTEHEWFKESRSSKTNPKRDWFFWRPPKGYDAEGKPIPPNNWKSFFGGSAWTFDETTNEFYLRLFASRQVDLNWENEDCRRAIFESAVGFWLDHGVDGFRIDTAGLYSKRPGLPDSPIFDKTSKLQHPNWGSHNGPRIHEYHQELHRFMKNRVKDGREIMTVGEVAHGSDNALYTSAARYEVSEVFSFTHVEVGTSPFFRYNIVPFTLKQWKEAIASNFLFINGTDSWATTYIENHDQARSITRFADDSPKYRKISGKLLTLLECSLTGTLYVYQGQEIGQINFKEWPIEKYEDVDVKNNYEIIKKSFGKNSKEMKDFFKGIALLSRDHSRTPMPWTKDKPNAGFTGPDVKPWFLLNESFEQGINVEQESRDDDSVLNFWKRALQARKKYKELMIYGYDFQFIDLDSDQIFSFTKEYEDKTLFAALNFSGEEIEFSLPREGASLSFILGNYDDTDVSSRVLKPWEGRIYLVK
# α-glucosidase = α-glucosidase (Saccharomyces cerevisiae, UniProt P53341); assay: Kinetic study of α-glucosidase inhibition; type: biochemical, yeast
# Sequence of α-glucosidase (P53341 whole entry): as above
smiles,measurement,setting,value
"NC(=S)N/N=C/c1cc2ccccc2nc1SCc1cn(CC(=O)Nc2ccccc2)nn1 [Compound 10a, (E)-2-(4-(((3-((2-Carbamothioylhydrazineylidene)methyl)quinolin-2-yl)thio)methyl)-1H-1,2,3-triazol-1-yl)-N-phenylacetamide]",Fold decrease of anti-α-glucosidase activity relative to compound 10e,yeast α-glucosidase,5.38 folds
"Cc1ccccc1NC(=O)Cn1cc(CSc2nc3ccccc3cc2/C=N/NC(N)=S)nn1 [Compound 10b, (E)-2-(4-(((3-((2-Carbamothioylhydrazineylidene)methyl)quinolin-2-yl)thio)methyl)-1H-1,2,3-triazol-1-yl)-N-(o-tolyl)acetamide]",Fold decrease of inhibitory activity relative to compound 10g,yeast α-glucosidase,2.3 folds
"Cc1ccc(NC(=O)Cn2cc(CSc3nc4ccccc4cc3/C=N/NC(N)=S)nn2)cc1 [Compound 10d, (E)-2-(4-(((3-((2-Carbamothioylhydrazineylidene)methyl)quinolin-2-yl)thio)methyl)-1H-1,2,3-triazol-1-yl)-N-(p-tolyl)acetamide]",Fold decrease of anti-α-glucosidase activity relative to compound 10e,yeast α-glucosidase,6.97 folds
"Cc1cccc(NC(=O)Cn2cc(CSc3nc4ccccc4cc3/C=N/NC(N)=S)nn2)c1C [Compound 10f, (E)-2-(4-(((3-((2-Carbamothioylhydrazineylidene)methyl)quinolin-2-yl)thio)methyl)-1H-1,2,3-triazol-1-yl)-N-(2,3-dimethylphenyl)acetamide]",Fold decrease of inhibitory activity relative to compound 10g,yeast α-glucosidase,1.6 folds
"NC(=S)N/N=C/c1cc2ccccc2nc1SCc1cn(CC(=O)Nc2cccc([N+](=O)[O-])c2)nn1 [Compound 10k, (E)-2-(4-(((3-((2-Carbamothioylhydrazineylidene)methyl)quinolin-2-yl)thio)methyl)-1H-1,2,3-triazol-1-yl)-N-(3-nitrophenyl)acetamide]",Fold increase of inhibitory activity relative to compound 10m,yeast α-glucosidase,2.58 folds
"Cc1cc([N+](=O)[O-])ccc1NC(=O)Cn1cc(CSc2nc3ccccc3cc2/C=N/NC(N)=S)nn1 [Compound 10l, (E)-2-(4-(((3-((2-Carbamothioylhydrazineylidene)methyl)quinolin-2-yl)thio)methyl)-1H-1,2,3-triazol-1-yl)-N-(2-methyl-4-nitrophenyl)acetamide]",Fold increase of inhibitory activity relative to compound 10m,yeast α-glucosidase,1.82 folds
"NC(=S)N/N=C/c1cc2ccccc2nc1SCc1cn(CC(=O)NCCc2ccccc2)nn1 [Compound 10n, (E)-2-(4-(((3-((2-Carbamothioylhydrazineylidene)methyl)quinolin-2-yl)thio)methyl)-1H-1,2,3-triazol-1-yl)-N-phenethylacetamide]",Improving the inhibitory effect (times more potent than acarbose),yeast α-glucosidase,15.5
same,Ki,α-glucosidase,48.1 µM
same,Mode of α-glucosidase inhibition,"α-glucosidase; Lineweaver–Burk plot, inhibitor 0, 12.1, 24.2, 48.4 µM",competitive α-glucosidase inhibitor

# — PMC11680592 (Scientific Reports, 2024)
